Assay results from US7592160B2, “Processes for producing isomaltose and isomaltitol and use thereof” (Kabushiki Kaisha Hayashibara Seibutsu Kagaku Kenkyujo, priority 2001, dated 2009).

Tests used:
[1] = tested on: α-isomaltosyl-transferring enzyme; experiment: Influence of metal ions on α-isomaltosyl-transferring enzyme activity (N75 strain); assay type: biochemical, Bacillus globisporus N75 strain; details: in the presence of 1 mM of each metal-ion; None = 100
Procedure: (§1) The activity of α-isomaltosyl-transferring enzyme was assayed by dissolving panose in 100 mM acetate buffer (pH 6.0) to give a concentration of 2% (w/v) for a substrate solution, adding a 0.5 ml of an enzyme solution to 0.5 ml of the substrate solution, enzymatically reacting the mixture solution at 35° C. for 30 min, suspending the enzymatic reaction by boiling the solution for 10 min, and quantifying glucose, among the cyclotetrasaccharide and glucose formed mainly in the reaction mixture, by the glucose oxidase method. One unit activity of α-isomaltosyl-transferring enzyme is defined as the enzyme amount that forms one micromole of glucose per minute under the above enzymatic reaction conditions. Throughout the specification, the enzymatic activity of α-isomaltosyl-transferring enzyme means the unit(s) assayed as above.
The influence of temperature and pH on the activity of α-isomaltosyl-transferring enzyme was examined in accordance with the assay for its enzyme activity. […] The thermal stability of the enzyme was determined by incubating the testing enzyme solutions in the form of 20 mM acetate buffer (pH 6.0) at prescribed temperatures for 60 min, cooling the resulting enzyme solutions with water, and assaying the remaining enzyme activity of each solution. The pH stability of the enzyme was determined by keeping the testing enzyme solutions in the from of 50 mM buffers having prescribed pHs at 4° C. for 24 hours, adjusting the pH of each solution to 6.0, and assaying the remaining enzyme activity of each solution. […] The influence of metal ions on the activity of α-isomaltosyl-transferring enzyme was examined in the presence of 1 mM of each metal-ion according to the assay for its enzyme activity.

[2] = tested on: α-isomaltosylglucosaccharide-forming enzyme; experiment: Influence of metal ions on α-isomaltosylglucosaccharide-forming enzyme activity (A19 strain); assay type: biochemical, Arthrobacter globiformis A19 strain; details: in the presence of 1 mM of each metal-ion; None = 100
[3] = tested on: α-isomaltosyl-transferring enzyme; experiment: Influence of metal ions on α-isomaltosyl-transferring enzyme activity (C11 strain); assay type: biochemical, Bacillus globisporus C11 strain; details: in the presence of 1 mM of each metal-ion; None = 100
Procedure: as §1
(§2) The influence of metal ions on the activity of α-isomaltosyl-transferring enzyme was examined in the presence of 1 mM of each metal-ion according to the assay for its enzyme activity.

[4] = tested on: α-isomaltosyl-transferring enzyme; experiment: Influence of metal ions on α-isomaltosyl-transferring enzyme activity (S1 strain); assay type: biochemical, Arthrobacter ramosus S1 strain; details: in the presence of 1 mM of each metal-ion; None = 100
Procedure: as §1, §2

[5] = tested on: α-isomaltosyl-transferring enzyme; experiment: Influence of metal ions on α-isomaltosyl-transferring enzyme activity (C9 strain); assay type: biochemical, Bacillus globisporus C9 strain; details: in the presence of 1 mM of each metal-ion; None = 100
Procedure: as §1, §2

[6] = tested on: α-isomaltosylglucosaccharide-forming enzyme; experiment: Transfer-acceptor specificity, enzyme of N75 strain; assay type: biochemical, Bacillus globisporus N75 strain; details: acceptor 1.6%, PINE-DEX #100 donor 4%, one unit/g donor, 30° C., pH 6.0, 24 hours
How it was run: (§3)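 Acceptor saccharides at 1.6% with partial starch hydrolyzate donor at 4% and purified enzyme at 1 unit/g donor, d.s.b., 30 °C, 24 h, pH 6.0 (pH 8.4 for A19 enzyme). Transfer products of mono- and disaccharide acceptors analysed by GLC, of trisaccharide acceptors by HPLC with refractometer detection.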

[7] = tested on: α-isomaltosylglucosaccharide-forming enzyme; experiment: Action on saccharides as substrates (TLC), enzyme of A19 strain; assay type: biochemical, Arthrobacter globiformis A19 strain; design: key: −: it showed no change; +: it showed a slight reduction of the color spot of the substrate and the formation of other reaction product; ++: it showed a high reduction of the color spot of the substrate and the formation of other reaction product; +++: it showed a substantial disappearance of the substrate spot and the formation of other reaction product; details: two units/g substrate, substrate 2% (w/v), 30° C., pH 8.4, 24 hours
Excerpt: (§4) To examine the saccharides in the supernatant, they were separated by developing twice on silica gel thin-layer chromatography (abbreviated as “TLC” hereinafter) using, as a developer, a mixture solution of n-butanol, pyridine, and water (=6:4:1 by volume), and, as a thin-layer plate, “[…]™ 60”, an aluminum plate (20×20 cm) for TLC commercialized by Merck & Co., Inc., Rahway, USA. The coloration of the separated total sugars by the sulfuric acid-methanol method and that of the reducing saccharides by the diphenylamine-aniline method detected a non-reducing saccharide positive at an Rf value of about 0.31 on the former detection method but negative on the latter detection method.
(§5) It was tested whether any saccharides can be used as substrates for α-isomaltosylglucosaccharide-forming enzyme. For the purpose, a solution of maltose, maltotriose, maltotetraose, maltopentaose, maltohexaose, maltoheptaose, isomaltose, isomaltotriose, panose, isopanose, α,α-trehalose, kojibiose, nigerose, neotrehalose, cellobiose, gentibiose, maltitol, maltotriitol, lactose, sucrose, erlose, selaginose, maltosyl glucoside, or isomaltosyl glucoside was prepared.
(§6) To each of the above solutions was added two units/g substrate of a purified specimen of α-isomaltosylglucosaccharide-forming enzyme from either Bacillus globisporus C9 strain obtained by the method in Experiment 4-2, Bacillus globisporus C11 strain obtained by the method in Experiment 7-2, Bacillus globisporus N75 strain obtained by the method in Experiment 11-2, or Arthrobacter globiformis A19 strain obtained by the method in Experiment 15-2, and the resulting each solution was adjusted to give a substrate concentration of 2% (w/v) and incubated at 30° C. and pH 6.0 for 24 hours, except for using pH 8.4 for the enzyme from Arthrobacter globiformis A19 strain. The enzyme solutions before and after the enzymatic reactions were respectively analyzed on TLC disclosed in Experiment 1 to confirm whether the enzymes acted on these substrates.

[8] = tested on: α-isomaltosylglucosaccharide-forming enzyme; experiment: Action on saccharides as substrates (TLC), enzyme of C9 strain; assay type: biochemical, Bacillus globisporus C9 strain; design: key: −: it showed no change; +: it showed a slight reduction of the color spot of the substrate and the formation of other reaction product; ++: it showed a high reduction of the color spot of the substrate and the formation of other reaction product; +++: it showed a substantial disappearance of the substrate spot and the formation of other reaction product; details: two units/g substrate, substrate 2% (w/v), 30° C., pH 6.0, 24 hours
Excerpt: as §4, §5, §6

[9] = tested on: α-isomaltosylglucosaccharide-forming enzyme; experiment: Action on saccharides as substrates (TLC), enzyme of C11 strain; assay type: biochemical, Bacillus globisporus C11 strain; design: key: −: it showed no change; +: it showed a slight reduction of the color spot of the substrate and the formation of other reaction product; ++: it showed a high reduction of the color spot of the substrate and the formation of other reaction product; +++: it showed a substantial disappearance of the substrate spot and the formation of other reaction product; details: two units/g substrate, substrate 2% (w/v), 30° C., pH 6.0, 24 hours
Excerpt: as §4, §5, §6

[10] = tested on: α-isomaltosylglucosaccharide-forming enzyme; experiment: Transfer-acceptor specificity, enzyme of C11 strain; assay type: biochemical, Bacillus globisporus C11 strain; details: acceptor 1.6%, PINE-DEX #100 donor 4%, one unit/g donor, 30° C., pH 6.0, 24 hours
How it was run: as §3

[11] = tested on: α-isomaltosylglucosaccharide-forming enzyme; experiment: Transfer-acceptor specificity, enzyme of C9 strain; assay type: biochemical, Bacillus globisporus C9 strain; details: acceptor 1.6%, PINE-DEX #100 donor 4%, one unit/g donor, 30° C., pH 6.0, 24 hours
How it was run: as §3

[12] = tested on: α-isomaltosylglucosaccharide-forming enzyme; experiment: Transfer-acceptor specificity, enzyme of A19 strain; assay type: biochemical, Arthrobacter globiformis A19 strain; details: acceptor 1.6%, PINE-DEX #100 donor 4%, one unit/g donor, 30° C., pH 8.4, 24 hours
How it was run: as §3

[13] = tested on: α-isomaltosylglucosaccharide-forming enzyme; experiment: Action on saccharides as substrates (TLC), enzyme of N75 strain; assay type: biochemical, Bacillus globisporus N75 strain; design: key: −: it showed no change; +: it showed a slight reduction of the color spot of the substrate and the formation of other reaction product; ++: it showed a high reduction of the color spot of the substrate and the formation of other reaction product; +++: it showed a substantial disappearance of the substrate spot and the formation of other reaction product; details: two units/g substrate, substrate 2% (w/v), 30° C., pH 6.0, 24 hours
Excerpt: as §4, §5, §6

[14] = tested on: α-isomaltosylglucosaccharide-forming enzyme; experiment: Influence of metal ions on α-isomaltosylglucosaccharide-forming enzyme activity (C9 strain); assay type: biochemical, Bacillus globisporus C9 strain
Procedure: (§7) About 20 L of a fresh preparation of the same liquid culture medium as used in the above seed culture were placed in a 30-L fermentor, sterilized by heating, and then cooled to 27° C. and inoculated with 1% (v/v) of the seed culture, followed by culturing at 27° C. and pH 6.0 to 8.0 for 48 hours under aeration-agitation conditions. […] These activities were assayed as follows: The activity of α-isomaltosylglucosaccharide-forming enzyme was assayed by dissolving maltotriose in 100 mM acetate buffer (pH 6.0) to give a concentration of 2% (w/v) for a substrate solution, adding a 0.5 ml of an enzyme solution to a 0.5 ml of the substrate solution, enzymatically reacting the mixture solution at 35° C. for 60 min, suspending the enzymatic reaction by boiling the solution for 10 min, and quantifying maltose, among the isomaltosyl maltose and maltose formed mainly in the reaction mixture, on HPLC disclosed in Experiment 1. One unit activity of α-isomaltosylglucosaccharide-forming enzyme is defined as the enzyme amount that forms one micromole of maltose per minute under the above enzymatic reaction conditions. Throughout the specification, the enzymatic activity of α-isomaltosylglucosaccharide-forming enzyme means the unit(s) assayed as above.
(§8) The influence of metal ions on the activity of α-isomaltosylglucosaccharide-forming enzyme was examined in the presence of 1 mM of each metal-ion according to the assay for its enzyme activity.

[15] = tested on: α-isomaltosylglucosaccharide-forming enzyme; experiment: Influence of metal ions on α-isomaltosylglucosaccharide-forming enzyme activity (N75 strain); assay type: biochemical, Bacillus globisporus N75 strain
Procedure: as §7, §8

[16] = tested on: α-isomaltosylglucosaccharide-forming enzyme; experiment: Influence of metal ions on α-isomaltosylglucosaccharide-forming enzyme activity (C11 strain); assay type: biochemical, Bacillus globisporus C11 strain
[17] = in the presence of 1 mM of each metal-ion, None = 100

Relative activity (%) [5] | Enzymatic action, Enzyme of A19 strain [7] | Enzymatic action, Enzyme of C9 strain [8] | Enzymatic action, Enzyme of C11 strain [9] | Enzymatic action, Enzyme of N75 strain [13] | effect on the enzyme activity, in words ([14]; 1 mM, Table 3) | Relative activity (%) [14, 17] | effect on the enzyme activity, in words ([15]; 1 mM, Table 13) | Relative activity (%) [15, 17] | effect on the enzyme activity, in words ([16]; 1 mM, Table 7) | Relative activity (%) [16, 17] | SMILES | Relative activity (%) [1] | Relative activity (%) [2] | Relative activity (%) [3] | Relative activity (%) [4] | Product of transferring reaction, Enzyme of N75 strain [6] | Product of transferring reaction, Enzyme of C11 strain [10] | Product of transferring reaction, Enzyme of C9 strain [11] | Product of transferring reaction, Enzyme of A19 strain [12]
103% |  |  |  |  |  |  |  |  |  |  | [Al+3] [Al^3+] | 94% | 37% | 89% | 93% |  |  |  | 
 | − | − | − | − |  |  |  |  |  |  | OC[C@@H](O)[C@@H](O[C@H]1O[C@H](CO)[C@@H](O)[C@H](O)[C@H]1O)[C@H](O)[C@@H](O)CO [Maltitol, maltitol] |  |  |  |  | ++ (a saccharide-transferred product was detected in an amount over ten percent through transfer reaction to acceptor) | ++ (a saccharide-transferred product was detected in an amount over ten percent through transfer reaction to acceptor) | ++ (a saccharide-transferred product was detected in an amount over ten percent through transfer reaction to acceptor) | ++ (a saccharide-transferred product was detected in an amount over ten percent through transfer reaction to acceptor)
106% |  |  |  |  | activated | 111% | activated | 120% | activated | 142% | [Mn+2] [Mn^2+] |  |  |  |  |  |  |  | 
 | − | − | − | − |  |  |  |  |  |  | OC[C@H]1O[C@@](CO)(O[C@H]2O[C@H](CO)[C@@H](O)[C@H](O)[C@H]2O)[C@@H](O)[C@@H]1O [Sucrose, sucrose] |  |  |  |  | ++ (a saccharide-transferred product was detected in an amount over ten percent through transfer reaction to acceptor) | ++ (a saccharide-transferred product was detected in an amount over ten percent through transfer reaction to acceptor) | ++ (a saccharide-transferred product was detected in an amount over ten percent through transfer reaction to acceptor) | ++ (a saccharide-transferred product was detected in an amount over ten percent through transfer reaction to acceptor)
 | − | − | − | − |  |  |  |  |  |  | OC[C@H]1O[C@H](O[C@H]2O[C@H](CO)[C@@H](O)[C@H](O)[C@H]2O)[C@H](O)[C@@H](O)[C@@H]1O [Trehalose, α,α-trehalose] |  |  |  |  | ++ (a saccharide-transferred product was detected in an amount over ten percent through transfer reaction to acceptor) | ++ (a saccharide-transferred product was detected in an amount over ten percent through transfer reaction to acceptor) | ++ (a saccharide-transferred product was detected in an amount over ten percent through transfer reaction to acceptor) | ++ (a saccharide-transferred product was detected in an amount over ten percent through transfer reaction to acceptor)

SMILES | Relative activity (%) [5] | Enzymatic action, Enzyme of A19 strain [7] | Enzymatic action, Enzyme of C9 strain [8] | Enzymatic action, Enzyme of C11 strain [9] | Enzymatic action, Enzyme of N75 strain [13] | effect on the enzyme activity, in words ([14]; 1 mM, Table 3) | Relative activity (%) [14, 17] | effect on the enzyme activity, in words ([15]; 1 mM, Table 13) | Relative activity (%) [15, 17] | effect on the enzyme activity, in words ([16]; 1 mM, Table 7) | Relative activity (%) [16, 17] | Relative activity (%) [1] | Relative activity (%) [2] | Relative activity (%) [3] | Relative activity (%) [4] | Product of transferring reaction, Enzyme of N75 strain [6] | Product of transferring reaction, Enzyme of C11 strain [10] | Product of transferring reaction, Enzyme of C9 strain [11] | Product of transferring reaction, Enzyme of A19 strain [12]
[Ni+2] [Ni^2+] | 102% |  |  |  |  |  |  |  |  |  |  | 91% | 46% | 89% | 87% |  |  |  | 
